{
  "source": "ChEMBL document CHEMBL4354839",
  "about": "“Heterobifunctional Molecules Induce Dephosphorylation of Kinases-A Proof of Concept Study” (J Med Chem, 2020)",
  "key": {"[1]": {"target": "T1, AKT1/PPP1CA (Homo sapiens) (UniProt P62136+P31749)", "T1 sequence (P31749 whole entry, looked up)": "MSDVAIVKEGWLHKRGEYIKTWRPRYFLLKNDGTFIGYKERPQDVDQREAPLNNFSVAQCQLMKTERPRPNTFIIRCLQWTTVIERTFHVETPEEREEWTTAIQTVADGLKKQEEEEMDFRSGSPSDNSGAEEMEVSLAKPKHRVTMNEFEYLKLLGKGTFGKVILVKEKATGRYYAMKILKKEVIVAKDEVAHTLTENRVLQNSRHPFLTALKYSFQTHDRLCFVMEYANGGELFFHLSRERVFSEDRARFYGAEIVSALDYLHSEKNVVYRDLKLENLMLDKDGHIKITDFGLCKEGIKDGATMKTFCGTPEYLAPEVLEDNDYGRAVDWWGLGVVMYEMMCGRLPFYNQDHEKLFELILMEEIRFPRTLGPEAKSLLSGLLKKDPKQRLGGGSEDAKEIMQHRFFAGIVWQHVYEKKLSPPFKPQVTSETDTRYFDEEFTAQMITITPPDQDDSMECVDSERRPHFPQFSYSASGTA", "T1 sequence (P62136 whole entry, looked up)": "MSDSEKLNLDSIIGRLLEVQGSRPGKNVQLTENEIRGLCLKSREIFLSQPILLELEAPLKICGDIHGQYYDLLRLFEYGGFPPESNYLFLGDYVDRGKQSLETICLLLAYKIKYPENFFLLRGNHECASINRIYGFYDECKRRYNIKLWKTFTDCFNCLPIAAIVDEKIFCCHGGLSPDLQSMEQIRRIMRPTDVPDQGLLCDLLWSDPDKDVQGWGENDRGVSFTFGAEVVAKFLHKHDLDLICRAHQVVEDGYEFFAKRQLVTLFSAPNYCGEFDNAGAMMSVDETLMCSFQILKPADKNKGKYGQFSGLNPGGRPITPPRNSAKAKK", "assay": "Induction of PPI-mediated AKT dephosphorylation in human PC3 cells assessed as increase in AKT S473 dephosphorylation at 10 uM incubated for 8 hrs by Western blot analysis", "assay_type": "cell-based"}, "[2]": {"target": "T1, AKT1/PPP1CA (Homo sapiens)", "assay": "Induction of PPI-mediated AKT dephosphorylation in human LnCaP cells assessed as increase in AKT T308 dephosphorylation at 10 uM incubated for 8 hrs by Western blot analysis", "assay_type": "cell-based"}, "[3]": {"target": "T1, AKT1/PPP1CA (Homo sapiens)", "assay": "Induction of PPI-mediated AKT dephosphorylation in human MCF7/neo HER2 cells assessed as increase in AKT T308dephosphorylation at 10 uM incubated for 8 hrs by Western blot analysis", "assay_type": "cell-based"}, "[4]": {"target": "T1, AKT1/PPP1CA (Homo sapiens)", "assay": "Induction of PPI-mediated AKT dephosphorylation in human MCF7/neo HER2 cells assessed as increase in AKT […] dephosphorylation at 10 uM incubated for 8 hrs by Western blot analysis", "assay_type": "cell-based"}, "[5]": {"target": "T1, AKT1/PPP1CA (Homo sapiens)", "assay": "Induction of PPI-mediated AKT dephosphorylation in human LnCaP cells assessed as increase in AKT T308 dephosphorylation at 10 uM incubated for 6 and 8 hrs by Western blot analysis", "assay_type": "cell-based"}, "[6]": {"target": "T1, AKT1/PPP1CA (Homo sapiens)", "assay": "Induction of PPI-mediated AKT dephosphorylation in human PC3 cells assessed as increase in AKT T308 dephosphorylation at 10 uM incubated for 8 hrs by Western blot analysis", "assay_type": "cell-based"}, "[7]": {"target": "T1, AKT1/PPP1CA (Homo sapiens)", "assay": "Induction of PPI-mediated AKT dephosphorylation in human LnCaP cells assessed as reduction in S6 phosphorylation at 10 uM incubated for 8 hrs by Western blot analysis", "assay_type": "cell-based"}, "[8]": {"target": "T1, AKT1/PPP1CA (Homo sapiens)", "assay": "Induction of PPI-mediated AKT dephosphorylation in human LnCaP cells assessed as increase in AKT S473 dephosphorylation at 10 uM incubated for 8 hrs by Western blot analysis", "assay_type": "cell-based"}, "[9]": {"target": "EGFR/PPP1CA (Homo sapiens) (UniProt P00533+P62136)", "sequence (P00533 whole entry, looked up)": "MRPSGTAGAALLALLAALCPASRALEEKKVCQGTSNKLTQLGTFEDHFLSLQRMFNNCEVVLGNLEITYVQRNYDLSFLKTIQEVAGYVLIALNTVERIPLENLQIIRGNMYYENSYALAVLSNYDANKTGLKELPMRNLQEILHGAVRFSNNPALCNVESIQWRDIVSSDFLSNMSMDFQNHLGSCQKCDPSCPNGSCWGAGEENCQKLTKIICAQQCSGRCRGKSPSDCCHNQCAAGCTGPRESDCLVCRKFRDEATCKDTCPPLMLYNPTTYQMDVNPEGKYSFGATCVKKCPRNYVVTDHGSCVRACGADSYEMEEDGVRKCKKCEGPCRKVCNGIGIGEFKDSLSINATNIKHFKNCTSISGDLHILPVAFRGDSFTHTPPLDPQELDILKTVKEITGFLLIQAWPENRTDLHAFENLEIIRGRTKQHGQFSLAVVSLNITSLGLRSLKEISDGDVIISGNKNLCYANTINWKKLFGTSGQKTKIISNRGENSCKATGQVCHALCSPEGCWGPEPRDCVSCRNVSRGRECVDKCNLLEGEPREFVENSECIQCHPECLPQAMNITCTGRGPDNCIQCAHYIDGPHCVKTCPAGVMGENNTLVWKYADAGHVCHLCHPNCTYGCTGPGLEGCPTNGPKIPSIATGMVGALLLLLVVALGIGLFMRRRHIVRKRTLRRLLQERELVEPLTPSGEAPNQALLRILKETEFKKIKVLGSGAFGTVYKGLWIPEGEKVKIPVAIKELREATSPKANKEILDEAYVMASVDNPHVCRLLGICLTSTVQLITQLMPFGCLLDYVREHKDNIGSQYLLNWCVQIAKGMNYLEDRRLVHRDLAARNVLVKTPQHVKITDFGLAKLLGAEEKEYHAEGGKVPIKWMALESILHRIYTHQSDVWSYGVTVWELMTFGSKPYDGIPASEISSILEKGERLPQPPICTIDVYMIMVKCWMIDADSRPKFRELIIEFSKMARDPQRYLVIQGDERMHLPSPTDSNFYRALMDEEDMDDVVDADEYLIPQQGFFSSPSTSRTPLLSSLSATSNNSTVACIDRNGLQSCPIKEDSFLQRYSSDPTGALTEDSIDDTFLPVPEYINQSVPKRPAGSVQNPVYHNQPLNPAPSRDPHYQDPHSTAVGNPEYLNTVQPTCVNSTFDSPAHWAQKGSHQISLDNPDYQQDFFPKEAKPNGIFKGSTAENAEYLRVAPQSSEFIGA", "sequence (P62136 whole entry, looked up)": "as the sequence (P62136 whole entry, looked up) above", "assay": "Induction of PPI-mediated EGFR dephosphorylation in human HCC827 cells transfected with human Halo/FLAG-tagged PP1CA assessed as increase in EGFR Y1068 dephosphorylation at 10 uM incubated for 8 hrs by Western blot analysis", "assay_type": "cell-based"}, "HCC827": {"test_system": "HCC827", "assay": "Induction of dephosphorylation of EGFR Y1068 in human HCC827 cells at 10 uM incubated for 8 hrs by Western blot analysis", "assay_type": "functional, cell-based"}, "[10]": {"target": "T1, AKT1/PPP1CA (Homo sapiens)", "assay": "Induction of PPI (unknown origin)-mediated pAKT (T308) (unknown origin) dephosphorylation incubated for 1 hr by Western blot analysis", "assay_type": "protein assay"}, "[11]": {"target": "T1, AKT1/PPP1CA (Homo sapiens)", "assay": "Induction of PPI-mediated AKT dephosphorylation in human LnCaP cells assessed as increase in AKT T308 dephosphorylation at 10 uM incubated for 8 hrs in presence of PPI siRNA by Western blot analysis", "assay_type": "cell-based"}, "[12]": {"target": "T1, AKT1/PPP1CA (Homo sapiens)", "assay": "Induction of PPI-mediated AKT dephosphorylation in human LnCaP cells at 0.1 to 10 uM incubated for 2 hrs by Western blot analysis", "assay_type": "cell-based"}, "[13]": {"target": "T1, AKT1/PPP1CA (Homo sapiens)", "assay": "Induction of PPI (unknown origin)-mediated pAKT (T308) (unknown origin) dephosphorylation at 0.25 to 10 uM incubated for 1 hr by Western blot analysis", "assay_type": "protein assay"}, "[14]": {"target": "T1, AKT1/PPP1CA (Homo sapiens)", "assay": "Induction of PPI-mediated AKT dephosphorylation in human LnCaP cells assessed as increase in AKT dephosphorylation at 50 uM incubated for 8 hrs by Western blot analysis", "assay_type": "cell-based"}, "[15]": {"target": "T1, AKT1/PPP1CA (Homo sapiens)", "assay": "Induction of PPI-mediated AKT dephosphorylation in human PC3 cells transfected with human Halo/FLAG-tagged PP1CA at 10 uM incubated for 8 hrs by Western blot analysis", "assay_type": "cell-based"}, "[16]": {"target": "T1, AKT1/PPP1CA (Homo sapiens)", "assay": "Induction of PPI-mediated AKT dephosphorylation in human LnCaP cells transfected with human Halo/FLAG-tagged PP1CA at 10 uM incubated for 8 hrs by Western blot analysis", "assay_type": "cell-based"}, "[17]": {"target": "T1, AKT1/PPP1CA (Homo sapiens)", "assay": "Induction of PPI-mediated AKT dephosphorylation in human MCF7/neo HER2 cells transfected with human Halo/FLAG-tagged PP1CA at 10 uM incubated for 8 hrs by Western blot analysis", "assay_type": "cell-based"}},
  "note": "Active and inactive are the calls of the source. The rule behind the calls is not given here. Residues, ends and D or L forms follow the SMILES beside them. *: point of attachment. X1 = O=C(C*)NCCOCCOCC(=O)Nc1ccc2[nH]c(=O)n(C3CCN(Cc4ccc(-c5nc6cc[nH]c(=O)c6cc5-c5ccccc5)cc4)CC3)c2c1",
  "data": [
    {"smiles": "CC(=O)N[C@@H](CSCC(=O)NCCOCCOCC(=O)Nc1ccc2[nH]c(=O)n(C3CCN(Cc4ccc(-c5nc6cc[nH]c(=O)c6cc5-c5ccccc5)cc4)CC3)c2c1)C(=O)N[C@@H](CCCNC(=N)N)C(=O)N[C@H](C(=O)N[C@@H](CO)C(=O)N[C@@H](C)C(=O)O)C(C)C", "values": [
      {"measurement": "Activity", "setting": "[1]", "result": "inactive"},
      {"measurement": "Activity", "setting": "[2]", "result": "inactive"},
      {"measurement": "Activity", "setting": "[3]", "result": "inactive"},
      {"measurement": "Activity", "setting": "[4]", "result": "inactive"},
      {"measurement": "Activity", "setting": "[5]", "result": "inactive"},
      {"measurement": "Activity", "setting": "[6]", "result": "inactive"},
      {"measurement": "Activity", "setting": "[7]", "result": "Active"},
      {"measurement": "Activity", "setting": "[8]", "result": "inactive"}
    ]},
    {"smiles": "C=CC(=O)Nc1cc(Nc2nccc(-c3cn(C)c4ccccc34)n2)c(OC)cc1N(C)CCN1CCN(C(=O)COCCOCCOCCCCCCCl)CC1", "values": [
      {"measurement": "Activity", "setting": "[9]", "result": "Active"},
      {"measurement": "Activity", "setting": "HCC827", "result": "Active"}
    ]},
    {"smiles": "CC(=O)Nc1ccc2[nH]c(=O)n(C3CCN(Cc4ccc(-c5nc6cc[nH]c(=O)c6cc5-c5ccccc5)cc4)CC3)c2c1", "values": [
      {"measurement": "Activity", "setting": "[10]", "result": "Dose-dependent effect"}
    ]},
    {"smiles": "CC(=O)N[C@@H](CSCC(=O)NCCOCCOCC(=O)Nc1ccc2[nH]c(=O)n(C3CCN(Cc4ccc(-c5nc6cc[nH]c(=O)c6cc5-c5ccccc5)cc4)CC3)c2c1)C(=O)N[C@@H](CCCNC(=N)N)C(=O)N[C@H](C(=O)N[C@@H](CO)C(=O)N(C)[C@@H](Cc1ccccc1)C(=O)O)C(C)C", "values": [
      {"measurement": "Activity", "setting": "[1]", "result": "Active"},
      {"measurement": "Activity", "setting": "[2]", "result": "Active"},
      {"measurement": "Activity", "setting": "[3]", "result": "Active"},
      {"measurement": "Activity", "setting": "[4]", "result": "Active"},
      {"measurement": "Activity", "setting": "[11]", "result": "inactive"},
      {"measurement": "Activity", "setting": "[5]", "result": "Active"},
      {"measurement": "Activity", "setting": "[6]", "result": "Active"},
      {"measurement": "Activity", "setting": "[7]", "result": "Active"},
      {"measurement": "Activity", "setting": "[8]", "result": "Active"}
    ]},
    {"smiles": "CC[C@H](C)[C@H](NC(=O)[C@@H](NC(=O)[C@H](CCC(=O)O)NC(=O)[C@H](C)NC(=O)[C@H](C)NC(=O)[C@H](CCC(=O)O)NC(=O)[C@H](C)NC(=O)[C@H](Cc1ccccc1)NC(=O)[C@@H](NC(=O)[C@@H](NC(=O)[C@H](CCCNC(=N)N)NC(=O)[C@H](C)NC(=O)[C@H](CC(N)=O)NC(=O)[C@H](CCCCN)NC(=O)[C@H](CCCNC(=N)N)NC(=O)[C@H](CCCCN)NC(=O)[C@H](CCCNC(=N)N)NC(=O)[C@H](CCCCN)NC(=O)[C@@H]1CCCN1C(=O)[C@H](CCCNC(=N)N)NC(=O)[C@H](CSCC(=O)NCCOCCOCC(=O)Nc1ccc2[nH]c(=O)n(C3CCN(Cc4ccc(-c5nc6cc[nH]c(=O)c6cc5-c5ccccc5)cc4)CC3)c2c1)NC(C)=O)C(C)C)[C@@H](C)O)[C@@H](C)CC)C(=O)O", "note": "(Ac-C(X1)RPKRKRKNARVTFAEAAEII-OH)", "values": [
      {"measurement": "Activity", "setting": "[12]", "result": "inactive"},
      {"measurement": "Activity", "setting": "[13]", "result": "Active"}
    ]},
    {"smiles": "CC(=O)N[C@@H](CSCC(=O)NCCOCCOCCOCC(=O)N(C)CCN(C[C@@H](C(=O)N1CCN(c2ncnc3c2[C@H](C)C[C@H]3O)CC1)c1ccc(Cl)cc1)C(C)C)C(=O)N[C@@H](CCCNC(=N)N)C(=O)N[C@H](C(=O)N[C@@H](CO)C(=O)N[C@@H](C)C(=O)O)C(C)C", "values": [
      {"measurement": "Activity", "setting": "[2]", "result": "inactive"},
      {"measurement": "Activity", "setting": "[14]", "result": "Active"},
      {"measurement": "Activity", "setting": "[8]", "result": "inactive"}
    ]},
    {"smiles": "O=C(CCC(=O)NCCOCCOCC(=O)Nc1ccc2[nH]c(=O)n(C3CCN(Cc4ccc(-c5nc6cc[nH]c(=O)c6cc5-c5ccccc5)cc4)CC3)c2c1)NCCOCCOCCCCCCCl", "values": [
      {"measurement": "Activity", "setting": "[15]", "result": "Active"},
      {"measurement": "Activity", "setting": "[16]", "result": "Active"},
      {"measurement": "Activity", "setting": "[17]", "result": "Active"}
    ]}
  ]
}
